# Measured values as given in patent US8609417B2, “Methods and compositions for stem cell cultures” (The Regents of the University of California, priority 2009, dated 2013).
# Tests used:
# Assay type in all cases: cell-based, human
# [1] = system: hiPS cells; test: Cell viability assay under adherence conditions (trypan blue live cell counting); conditions: 10 μM, 24 h after plating 1×10^5 cells/well, n=3
# Description: hES or hiPS cells were plated at 1×10^5 cells/well on 12-well plates coated with PDL or Matrigel in mTeSR in the presence or absence of blebbistatin or Y-27632 at various concentrations in triplicates. DMSO (solvent for blebbistatin) was also added in the control condition and found to have no effect on viability. For mES cells, cells were plated under the same condition except for the use of gelatin coating and mES medium. After 24 h, cells were harvested, trypsinized to single cells, and counted by hemocytometer. Cell counting was performed independently by two researchers to confirm the consistency. The same samples were used for TUNEL assay immediately after taking a small fraction of the sample for cell counting.
# [2] = system: hiPS cells; test: Attachment of hiPS cells on poly-D-lysine (PDL) in mTeSR; conditions: no signs of defects in cell-cell adhesions
# Text: Myosin II controls cell-matrix contacts and detachment-induced apoptosis in hiPS and hiES cells. […] Similar results were obtained from the experiments using hES cells.
# [3] = system: hES cells; test: Cell-cell contact of hES cells (morphology, cell contact index); conditions: hES cells, 10 μM
# Description: Rock and myosin II regulate cell-cell interactions in hES cells. To test whether the observed function of RRM signaling in cell-cell contacts in mES cells is conserved in hES cells, H1 cells grown under the feeder-free condition with Matrigel™ and conditioned medium (CM) (FIG. 3A) were treated with C3 exoenzyme. […] Rock-inhibitor treatment also led to cell adhesion defects although it required a higher concentration (20 μM) than that (10 μM) for mES cells (FIG. 3C). Myosin IIA and IIB were colocalized with cell-cell borders in hES cells, which indicates their potential role in cell-cell adhesions (FIG. 3D).
# [4] = system: Oct3/4 and Nanog; test: Oct3/4 and Nanog expression by QPCR, Western analysis and immunocytochemistry; conditions: hES cells in mTeSR or hESm, different concentrations, 48 h
# Description: For immunocytochemistry, cells grown on culture vessels were fixed in 4% paraformaldehyde (USB Corporation). After washing with PBS/BSA, the samples were incubated with primary antibodies recognizing the target proteins at 4° C. overnight. The primary antibodies used in the study include Oct3 (BD Biosciences), myosin IIA (Covance), and myosin IIB (Covance). The samples were washed for three times, and incubated with appropriate secondary antibodies conjugated with Alexa Fluorophore (Invitrogen) at room temperature for 30 min. […]
# QPCR. […] The extracted RNA sample was quantified by UV spectrophotometer, and qualified by the RNA Nano Lab chip (Agilent Technologies). […] Each cycle threshold (CT) value was determined by iQ5 optical system software (BioRad), and normalized by the β-actin expression level. […]
# Total protein was extracted with RIPA buffer (20 mM Tris-HCl, pH 7.5, 150 mM NaCl, 1 mM Na2EDTA, 1 mM EGTA, 1% NP-40, 1% sodium deoxycholate, 2.5 mM sodium pyrophosphate, 1 mM β-glycerophosphate, 1 mM Na3VO4, and protease inhibitors). Protein concentrations were determined by BCA Protein Assay kit (Pierce). […]
smiles,measurement,setting,value
"Cc1ccc2c(c1)C(=O)C1(O)CCN(c3ccccc3)C1=N2 (centres unmarked) [blebbistatin, 1-Phenyl-1,2,3,4-tetrahydro-4-hydroxypyrrolo[2,3-b]-7-methylquinolin-4-one]",Number of viable cells,[1]; hiPS cells on Matrigel coating,8.6±0.6×10^4 cells
same,Number of viable cells,[1]; hiPS cells on PDL,7.9±0.6×10^4 cells
same,Minimum concentration supporting attachment of hiPS cells on PDL,[2],2 µM
same,Effect on cell-cell connections,[3],disrupted cell-cell connections
same,Oct3/4 and Nanog expression,[4],elevated levels of both transcription factors in a dose dependent manner
